Reference: patent EP4813993A1, “COMPOUND, PREPARATION METHOD THEREFOR, AND USE THEREOF” (Sichuan Kelun Pharmaceutical Research Institute Co., Ltd., priority 2023, dated 2025)
Each block holds one molecule with its values, some of them ahead of it.

Experiments:
Nav1.8 channels = target: T1, Nav1.8 channels (Homo sapiens, UniProt Q9Y5Y9); test: Manual patch-clamp, current of stably overexpressed Nav1.8 channels (resting state voltage program); format: cell-based; settings: for inhibition at 0.01 µM: concentration of 10 nM
T1 construct: expressed in transfected cells
T1 sequence (Q9Y5Y9 whole entry): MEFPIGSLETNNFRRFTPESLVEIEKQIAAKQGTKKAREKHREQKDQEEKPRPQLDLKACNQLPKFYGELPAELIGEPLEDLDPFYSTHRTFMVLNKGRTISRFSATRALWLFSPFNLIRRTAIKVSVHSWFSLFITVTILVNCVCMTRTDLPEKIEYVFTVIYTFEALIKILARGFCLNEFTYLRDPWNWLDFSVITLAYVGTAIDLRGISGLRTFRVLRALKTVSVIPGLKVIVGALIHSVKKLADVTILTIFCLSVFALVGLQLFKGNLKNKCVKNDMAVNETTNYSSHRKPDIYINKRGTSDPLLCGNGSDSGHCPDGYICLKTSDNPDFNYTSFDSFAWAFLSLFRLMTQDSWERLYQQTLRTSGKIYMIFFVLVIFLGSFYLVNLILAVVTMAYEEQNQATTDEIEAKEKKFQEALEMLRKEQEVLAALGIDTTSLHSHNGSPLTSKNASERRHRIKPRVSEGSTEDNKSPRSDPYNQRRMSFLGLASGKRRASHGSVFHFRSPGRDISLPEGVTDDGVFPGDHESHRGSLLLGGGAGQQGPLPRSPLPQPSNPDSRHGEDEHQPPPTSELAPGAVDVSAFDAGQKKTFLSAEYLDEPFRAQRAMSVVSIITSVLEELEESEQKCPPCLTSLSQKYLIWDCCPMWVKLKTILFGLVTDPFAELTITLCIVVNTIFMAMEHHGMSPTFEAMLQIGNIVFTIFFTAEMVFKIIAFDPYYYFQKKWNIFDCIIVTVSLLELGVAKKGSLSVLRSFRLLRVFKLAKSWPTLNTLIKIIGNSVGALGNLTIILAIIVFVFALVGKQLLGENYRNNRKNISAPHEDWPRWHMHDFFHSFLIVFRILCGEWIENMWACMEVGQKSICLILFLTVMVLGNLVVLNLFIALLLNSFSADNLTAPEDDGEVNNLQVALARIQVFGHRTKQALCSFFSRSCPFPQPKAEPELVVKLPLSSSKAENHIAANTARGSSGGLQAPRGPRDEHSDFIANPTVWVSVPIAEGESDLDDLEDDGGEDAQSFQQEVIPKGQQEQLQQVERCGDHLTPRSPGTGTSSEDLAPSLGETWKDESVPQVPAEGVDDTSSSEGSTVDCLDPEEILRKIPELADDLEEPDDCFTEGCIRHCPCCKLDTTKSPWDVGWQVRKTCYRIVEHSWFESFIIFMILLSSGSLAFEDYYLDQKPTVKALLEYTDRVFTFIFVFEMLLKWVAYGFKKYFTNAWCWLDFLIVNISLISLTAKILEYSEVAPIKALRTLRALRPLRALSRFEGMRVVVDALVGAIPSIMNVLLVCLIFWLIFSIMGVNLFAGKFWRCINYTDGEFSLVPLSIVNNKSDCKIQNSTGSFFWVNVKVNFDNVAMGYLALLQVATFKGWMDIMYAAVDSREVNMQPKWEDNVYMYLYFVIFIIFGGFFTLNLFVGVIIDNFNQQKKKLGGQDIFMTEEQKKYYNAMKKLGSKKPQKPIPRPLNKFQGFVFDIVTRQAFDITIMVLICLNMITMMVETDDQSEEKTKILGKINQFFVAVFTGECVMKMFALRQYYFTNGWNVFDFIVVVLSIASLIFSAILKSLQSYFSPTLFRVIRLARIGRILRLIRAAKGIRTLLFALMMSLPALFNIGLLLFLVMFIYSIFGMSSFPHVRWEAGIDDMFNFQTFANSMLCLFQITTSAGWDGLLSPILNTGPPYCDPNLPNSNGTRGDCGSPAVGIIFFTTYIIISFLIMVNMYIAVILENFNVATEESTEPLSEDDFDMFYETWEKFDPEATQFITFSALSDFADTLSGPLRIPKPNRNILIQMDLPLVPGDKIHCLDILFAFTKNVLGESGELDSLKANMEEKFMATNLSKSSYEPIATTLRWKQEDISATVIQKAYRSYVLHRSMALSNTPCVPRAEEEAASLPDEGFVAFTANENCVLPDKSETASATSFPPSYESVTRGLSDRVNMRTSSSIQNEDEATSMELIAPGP
Method in brief: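 Whole-cell manual patch clamp on cells stably overexpressing Nav1.8, held at -120 mV and stepped to 0 mV for 50 ms every 20 s (resting-state protocol). Compounds were perfused in ascending concentrations, each for 5 min or until stable; block of peak current was calculated at steady state.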

[1] = Tissue distribution study (dorsal root ganglia) in ICR mice; format: in vivo; settings: male, mouse, oral administration 20 mg/kg
Experimental: Experimental Example 4: Tissue distribution study of compounds in ICR mice
(§1) Experimental animals: ICR mice, male, 6-8 weeks old.
(§2) Compound preparation: 5% (final preparation volume) of DMSO was added to dissolve the test compound, and then 10% (final preparation volume) of Cremophor EL and 85% Saline were sequentially added.
Experimental design: The test compounds were administered to ICR mice as a single dose via oral administration (20 mg/kg; n = 3, 3 time points). Blood samples were collected at 0.25 h, 2 h, and 12 h after oral administration, followed by sacrifice of the animals. Dorsal root ganglia (DRG) were collected, rinsed with ice-cold normal saline to remove residual blood, blotted dry with absorbent paper, and stored at -70 °C for analysis.
Sample test: The concentrations of the compound drugs in dorsal root ganglia were determined by the LC-MS/MS method.

[2] = Pharmacokinetic study in ICR mice; format: in vivo; settings: male, mouse, plasma
Experimental: Experimental Example 3: Pharmacokinetic study of compounds in ICR mice
as §1, §2
(§3) The injection group was given free access to food and water. The oral group was fasted overnight (> 12 h) with free access to water, and was fed 4 h after administration. Blood samples were collected from the jugular vein of ICR mice at the following time points: 5 min, 15 min, 0.5 h, 1 h, 2 h, 4 h, 8 h, and 24 h after injection administration; 15 min, 0.5 h, 1 h, 2 h, 4 h, 6 h, 8 h, and 24 h after oral administration. The collected blood samples were anticoagulated, placed in an ice bath, and then centrifuged for 5 min to separate plasma. The plasma was stored at -70 °C for analysis.
Sample test: The concentrations of the designated compound drugs in plasma were determined by the LC-MS/MS method; the main pharmacokinetic parameters were calculated using the Winnolin 8.3 non-compartmental model. Pharmacokinetic test results of some compounds of the present disclosure in ICR mice

[3] = Pharmacokinetic study in SD rats; format: in vivo; settings: for AUC(0-inf) / half-life / Cmax / Tmax / bioavailability: rat
Experimental: Experimental Example 2: Pharmacokinetic study of compounds in SD rats
Experimental animals: SD rats, male, 6-8 weeks old.
as §2
as §3, with “Experimental design: The test compounds were administered to SD rats as a single dose via intravenous and oral administration, respectively (injection: 2 mg/kg; oral administration: 10 mg/kg; n = 3). The injection” for “The injection”, “vein of SD rats at the” for “vein of ICR mice at the”, “then centrifuged at 6000 g for 5” for “then centrifuged for 5”, “The plasma samples were stored at” for “The plasma was stored at”
Sample monitoring: The concentrations of the designated compound drugs in plasma were determined by the LC-MS/MS method; the main pharmacokinetic parameters were calculated using the Winnolin 8.3 non-compartmental model.

[4] = system: acetic acid writhing model; test: Mouse acetic acid writhing model; format: in vivo, ICR mice; settings: for Number of writhing responses: ICR mice, 60 min before 0.8% acetic acid i.p., 30 min observation, Mean + SD, n = 10
Experimental: Experimental Example 11: Pharmacodynamic effect study of compounds in mouse acetic acid writhing model
Experimental animals: ICR mice, male, 20-24 g.
(§4) Compound preparation: 5% (final preparation volume) of DMSO was added to dissolve the test compound, and then 10% (final preparation volume) of Cremophor EL and 85% Saline were sequentially added; an appropriate amount of Etoricoxib was weighed, 5% (final preparation volume) of DMSO was added to dissolve the test compound, and then 5% (final preparation volume) of HS-15 and 90% Saline were sequentially added.
• 1. The mice were randomly grouped based on the body weight for model establishment, with 10 animals per group. A 0.8% (v/v) acetic acid solution was intraperitoneally injected at an injection volume of 10 mL/kg. • 2. Administration and test
Administration was performed 60 min before modeling. After the acetic acid solution was injected, the number of writhing responses in mice was observed. […] The number of writhing responses was observed and recorded during two intervals: 0-15 min and 15-30 min, with a total observation duration of 30 min. Inhibition rate = (number of writhing responses in control group - number of writhing responses in administration group)/number of writhing responses in control group × 100%. The model control group was given normal saline, the positive control group 1 was given etoricoxib at 20 mg/kg, the positive control group 2 was given VX-548 at 50 mg/kg, and the remaining groups were given the compounds of the present disclosure according to the administration doses in the table below.

formalin pain model = test: Rat formalin pain model; format: in vivo, SD rats
Experimental: Experimental Example 10: Pharmacodynamic effect study of compounds in rat formalin pain model
Experimental animals: SD rats, male, 180-200 g.
as §4, with “added; the tramadol injection was diluted with normal saline to the desired concentration.” for “added.”
Each group consisted of 10 animals, and 50 µL of a 5% formalin solution was injected using a microsyringe into the right plantar region.
2. Administration and test
Based on different pharmacokinetic properties of the drugs, the administration was performed at 0 min, 60 min, and 120 min before modeling. After injection of the formalin, the number of pain responses in the rats was observed. […] Spontaneous pain responses were observed once every 5 min, and the number of pain responses in the rats within 1 min was counted, with a total observation duration of 60 min. Inhibition rate = (number of pain responses in control group - number of pain responses in administration group)/number of pain responses in control group × 100%.
Table 12. Administration information of compounds of the present disclosure in rat formalin model

[5] = in vivo, Oral administration, 10 mg/kg
[6] = Oral administration (p.o.), 20 mg/kg
[7] = male, plasma, Oral administration, 10 mg/kg
[8] = male, plasma, intravenous, Injection, 2 mg/kg

inhibition at 0.01 µM (Nav1.8 channels; read-out: Inhibition rate %): 97.7% | concentration at 0.25 h [1]: 597 ng/g | concentration at 2 h [1]: 6070 ng/g | concentration at 12 h [1]: 2220 ng/g | AUC(0-inf) ([2]; Oral administration, 10 mg/kg): 18600 ng·h/mL | AUC(0-inf) ([2]; iv, Injection (i.v.), 2 mg/kg): 3480 ng·h/mL
Structure (SMILES): COc1c([C@@H]2C[C@](C)(C(F)(F)F)S[C@H]2C(=O)Nc2ccnc(C#N)c2)ccc(F)c1F [Compound 242-A, (2R,3S,5R)-N-(2-cyanopyridin-4-yl)-3-(3,4-difluoro-2-methoxyphenyl)-5-methyl-5-(trifluoromethyl)tetrahydrothiophene-2-carboxamide]

inhibition at 0.001 µM (Nav1.8 channels; concentration of 1 nM, read-out: Inhibition rate %): 86.9% | concentration at 0.25 h [1]: 710 ng/g | concentration at 2 h [1]: 7200 ng/g | concentration at 12 h [1]: 2720 ng/g | AUC(0-inf) ([2]; Oral administration, 10 mg/kg): 12500 ng·h/mL | AUC(0-inf) ([2]; iv, Injection (i.v.), 2 mg/kg): 2050 ng·h/mL
Structure (SMILES): COc1c([C@@H]2C[C@](C)(C(F)(F)F)S[C@H]2C(=O)Nc2ccc3nnnn3c2)ccc(F)c1F [Compound 202-A, (2R,3S,5R)-3-(3,4-difluoro-2-methoxyphenyl)-5-methyl-N-(tetrazolo[1,5-a]pyridin-6-yl)-5-(trifluoromethyl)tetrahydrothiophene-2-carboxamide]

AUC(0-inf) ([3]; in vivo, Injection, 2 mg/kg): 2650 ng·h/mL | half-life ([3]; in vivo, Injection, 2 mg/kg): 2.64 h | AUC(0-inf) [3, 5]: 4970 ng·h/mL | Cmax [3, 5]: 577 ng/mL | Tmax [3, 5]: 2 h | bioavailability [3, 5]: 37.6% | half-life [3, 5]: 3.26 h
Structure (SMILES): COc1c(C2C(C(=O)Nc3ccnc(C(N)=O)c3)OC(C)(C(F)(F)F)C2C)ccc(F)c1F (racemic) [VX-548(rac)]

IC50 (Nav1.8 channels): 20 pM | concentration at 0.25 h [1]: 511 ng/g | concentration at 2 h [1]: 2360 ng/g | concentration at 12 h [1]: 635 ng/g | AUC(0-inf) [2, 6]: 50600 ng·h/mL | AUC(0-inf) ([2]; iv, Injection (i.v.), 2 mg/kg): 7200 ng·h/mL
Structure (SMILES): COc1c([C@@H]2C[C@](C)(C(F)(F)F)S[C@H]2C(=O)Nc2cccc(S(N)(=O)=O)c2)ccc(F)c1F [Compound 223-A, (2R,3S,5R)-3-(3,4-difluoro-2-methoxyphenyl)-5-methyl-N-(3-sulfamoylphenyl)-5-(trifluoromethyl)tetrahydrothiophene-2-carboxamide]

Structure (SMILES): COc1c([C@@H]2C[C@](C)(C(F)(F)F)S[C@H]2C(=O)Nc2ccc3c(c2)COB3O)ccc(F)c1F [Compound 119-A, (2R,3S,5R)-3-(3,4-difluoro-2-methoxyphenyl)-N-(1-hydroxy-1,3-dihydrobenzo[c][1,2]oxaborol-5-yl)-5-methyl-5-(trifluoromethyl)tetrahydrothiophene-2-carboxamide]
Number of writhing responses ([4]; Dose 50 mg/kg): 18 ± 15 | inhibition of the writhing effect compared with VX-548 ([4]; mouse acetic acid writhing model): better than VX-548 | IC50 (Nav1.8 channels): 490 pM | concentration at 0.25 h [1]: 875 ng/g | concentration at 2 h [1]: 2580 ng/g | concentration at 12 h [1]: 199 ng/g | AUC(0-inf) [2, 6]: 6740 ng·h/mL | AUC(0-inf) ([2]; iv, Injection (i.v.), 2 mg/kg): 842 ng·h/mL

Structure (SMILES): Cc1ccc(-c2ncc(Cl)cc2-c2ccc(S(C)(=O)=O)cc2)cn1 [Etoricoxib]
Number of writhing responses ([4]; Dose 20 mg/kg): 29 ± 11 | Number of pain responses 0 min (formalin pain model; SD rats, 30 mg/kg p.o. 60 min before 5% formalin, 0 min, Mean + SD, n = 10): 37.5±9.2 | Number of pain responses 10 min (formalin pain model; SD rats, 30 mg/kg p.o. 60 min before 5% formalin, 10 min, Mean + SD, n = 10): 2.0±2.4 | Number of pain responses 15 min (formalin pain model; SD rats, 30 mg/kg p.o. 60 min before 5% formalin, 15 min, Mean + SD, n = 10): 10.1±4.0 | Number of pain responses 30 min (formalin pain model; SD rats, 30 mg/kg p.o. 60 min before 5% formalin, 30 min, Mean + SD, n = 10): 14.3±5.3 | Number of pain responses 40 min (formalin pain model; SD rats, 30 mg/kg p.o. 60 min before 5% formalin, 40 min, Mean + SD, n = 10): 10.8±6.2 | Number of pain responses 50 min (formalin pain model; SD rats, 30 mg/kg p.o. 60 min before 5% formalin, 50 min, Mean + SD, n = 10): 5.1±8.5 | Number of pain responses 60 min (formalin pain model; SD rats, 30 mg/kg p.o. 60 min before 5% formalin, 60 min, Mean + SD, n = 10): 3.3±3.7 | analgesic activity in the first and second phases (formalin pain model; rat formalin pain model, first phase immediately after injection, second phase about 15-20 min after): superior analgesic effects in the first and second phases, respectively

Structure (SMILES): COc1c(C2CC(C)(C(F)(F)F)SC2C(=O)Nc2ccnc(C(N)=O)c2)ccc(F)c1F (centres unmarked) [Compound 139, 4-(3-(3,4-difluoro-2-methoxyphenyl)-5-methyl-5-(trifluoromethyl)tetrahydrothiophene-2-carboxamido)picolinamide]
t1/2, relative to VX-548 [3]: 2 times | AUC(0-inf) [3, 7]: 9310 ng·h/mL | Cmax [3, 7]: 724 ng/mL | Tmax [3, 7]: 4 h | bioavailability [3, 7]: 48.5% | half-life [3, 7]: 6.29 h | AUC(0-inf) [3, 8]: 3840 ng·h/mL | half-life [3, 8]: 4.86 h | exposure level after oral administration, relative to VX-548 ([3]; oral administration): 2 times | IC50 (Nav1.8 channels): 200 pM | inhibition at 0.01 µM (Nav1.8 channels; read-out: Inhibition rate %): 98.2%
